One assay has as its system Ah receptor. The assay is described as follows: Receptor capture assay employing ARNT-GST fusion protein, anti-GST plate, PCR and gel densitometry. Type of assay: biochemical, murine. The note with it: B-naphthoflavone 10 μM; duplicate samples; 30 cycles PCR; DMSO control 363. The method, then:
The receptor was activated in the presence of ARNT/GST binding partner and test sample. Sufficient ARNT/GST was added to displace the endogenous ARNT present in the Ah receptor preparation. In a tube, 98 μl Hepa1c1c7 (0.8 mg) extract was incubated with 1 μl GST-ARNT (50 ng) and 1 μl sample (e.g. BNF or vehicle alone) at 30° C. for 1 hour. Non-specific binding of the nucleic acid-tracer was reduced by preincubating the reaction mix with NaCl to 60 mM and 2 μg salmon sperm DNA for 15 min. at room temperature. Nucleic acid-tracer was added to 50 fmol and the reaction was incubated 20 min at room temperature. The complex was captured on a commercially available 96-well anti-GST plate (Perkin Elmer Life Sciences, Boston, Mass.). The anti-GST coated microtiter plate was washed once with Wallac Wash Buffer prior to addition of 50 μl receptor-DNA reaction. […]
Samples were analyzed by agarose gel electrophoresis with visualization of ethidium-bromide stained DNA bands under UV radiation Typically, 20 μl of each sample was analyzed in the 4% gels, yielding bright fluorescent bands from the positive controls. […] Negatives were scanned using an HPscanjet 2200c and DNA bands were quantified using ScionImage (Scion Corporation) software.
Duplicate samples were analyzed with the protocol described above with B-naphthoflavone (10 μM) or vehicle (DMSO) following 30 cycles PCR. […]

The target in a further assay is T1, AhR (Cavia porcellus, UniProt Q6J287).
T1 sequence (Q6J287 1-846): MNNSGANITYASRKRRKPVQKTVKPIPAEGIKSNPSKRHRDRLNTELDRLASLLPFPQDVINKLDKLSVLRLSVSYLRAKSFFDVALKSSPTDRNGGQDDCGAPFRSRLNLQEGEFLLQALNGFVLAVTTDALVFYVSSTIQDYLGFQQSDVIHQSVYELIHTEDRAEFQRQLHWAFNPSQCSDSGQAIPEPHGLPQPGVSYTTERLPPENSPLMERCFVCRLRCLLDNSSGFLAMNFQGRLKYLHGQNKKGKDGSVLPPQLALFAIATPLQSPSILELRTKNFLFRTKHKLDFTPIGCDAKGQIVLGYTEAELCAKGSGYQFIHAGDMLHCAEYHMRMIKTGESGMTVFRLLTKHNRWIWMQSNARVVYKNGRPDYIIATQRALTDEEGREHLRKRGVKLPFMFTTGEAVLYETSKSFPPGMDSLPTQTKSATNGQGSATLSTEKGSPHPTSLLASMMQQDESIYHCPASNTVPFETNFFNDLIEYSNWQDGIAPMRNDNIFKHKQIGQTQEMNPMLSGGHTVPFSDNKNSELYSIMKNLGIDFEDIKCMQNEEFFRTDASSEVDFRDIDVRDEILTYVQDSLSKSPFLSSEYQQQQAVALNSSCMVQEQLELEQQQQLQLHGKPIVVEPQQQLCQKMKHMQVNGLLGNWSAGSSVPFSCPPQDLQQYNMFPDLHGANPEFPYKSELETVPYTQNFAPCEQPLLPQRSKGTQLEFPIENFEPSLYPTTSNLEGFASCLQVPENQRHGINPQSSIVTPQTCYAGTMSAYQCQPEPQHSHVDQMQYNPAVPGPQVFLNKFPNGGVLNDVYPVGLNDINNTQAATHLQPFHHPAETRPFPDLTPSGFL
The assay is described as follows: Receptor capture assay, real-time PCR, AhR derived from guinea pig. It is filed as biochemical. Set-up: The cytosol containing AhR heteromers was stored at; from tissue; host or cells: liver cytosol of Hartley guinea pigs. As to the method: A set of calibrators consisting of 5000, 2500, 1250, 626, 313, 156, and 78 parts per trillion (ppt or pg/ml) 2,3,7,8-tetrachlorodibenzo-p-dioxin (TCDD) was prepared in methanol. In addition to TCDD a set of calibrators for AhR agonist, beta-naphthoflavone (BNF) was prepared and analyzed in the assay. Separately, 25 ul of 1:50,000 dilution of 10 uM stock nucleic acid-tracer was added per 1 ml of rodent cytosol, which was the source of AhR, and was aliquoted into glass tubes. The standards were diluted 1:20 into 50-100 ul of rodent cytosol, and incubated for 1-2 hr at room temperature to 37° C. Following incubation, 40 to 100 ul of the reaction was transferred to each well of the antibody-coated Capture Strip and incubated on a shaking platform for 30 min to 1 hr at room temperature. The Capture Strips were washed 5 times with Wash Buffer B, and aspirated; optionally soaking wells for 30 sec-5 min with wash buffer during each cycle. Taqman® Universal PCR Master Mix, primers, and Taqman® probe (Applied Biosystems, Calif.) were added, and adhesive cover applied. PCR was performed and analyzed using an ABI PRISM® 7700, using default settings: 50° C., 2 min, 95° C. […] A threshold cycle (Ct) was determined for each reaction The Ct represents the PCR cycle at which an increase in reporter fluorescence above baseline signal can first be detected.

For the compound `O=c1cc(-c2ccccc2)oc2ccc3ccccc3c12` [BNF, beta-naphthoflavone], the “average value of quantified DNA bands” value with Ah receptor is reported as 3013.
For `Clc1cc2c(cc1Cl)Oc1cc(Cl)c(Cl)cc1O2` [TCDD, 2,3,7,8-tetrachlorodibenzo-p-dioxin], the “slope of dose-response curve” value on AhR is recorded as −1.042. Moreover, the “EC50 of dose-response curve” value at AhR (pg of TCDD in the assay) is 2.6 pg.
